By EC50 is commonly meant the concentration giving half of the maximal effect. Lower therefore signals an effect from little substance. One may read the CC50 as the concentration giving 50% cytotoxicity. For orientation: Kd means the concentration at which binding is half-saturated. Lower therefore signals a tighter complex.

The source of these data is ChEMBL document CHEMBL4725397, “SAR study of bisamides as cyclophilin a inhibitors for the development of host-targeting therapy for hepatitis C virus infection” (Bioorg Med Chem, 2020).

Series [1] in a line: Antiviral activity against HCV genotype 2a JFH-1 infected in human Huh7.5 cells after 3 days by renilla luciferase reporter gene assay. It counts as functional, cell-based, Hepatitis C virus subtype 2a. The conditions noted are these: Hepatitis C virus, JFH-1, Huh7.5, 72 h. (A reporter such as luciferase makes a cellular process visible.)
Series [2] can be described thus: Cytotoxicity against human Huh7.5 cells assessed as decrease in cell viability after 3 days by MTT assay. It counts as cell-based. To be noted: time 3 day. (In general: Tetrazolium dyes change colour on reduction, which living cells bring about.)
A short description of series [3]: Selectivity index, ratio of CC50 for human Huh7.5 cells to EC50 for genotype 2a HCV JFH-1 infected in human Huh7.5 cells. It counts as toxicity, cell-based.
Another series relates to Hepatitis C virus. Description: Antiviral activity against 0.05 MOI HCV JFH-1 infected in human Huh7.5 assessed as suppression of viral replication after 4 days post-infection by western blot analysis. It counts as functional, organism-based. To be noted: Hepacivirus hominis, time 4.0 day. (In general: Immunoblotting shows a protein as a band on a membrane.)
For series [4], the target named is Peptidyl-prolyl cis-trans isomerase A (Homo sapiens, UniProt P62937). In words: Binding affinity to Cyclophilin A (unknown origin) by surface plasmon resonance analysis.

SMILES strings stand for the structures.

Sequence of Peptidyl-prolyl cis-trans isomerase A (P62937 whole entry): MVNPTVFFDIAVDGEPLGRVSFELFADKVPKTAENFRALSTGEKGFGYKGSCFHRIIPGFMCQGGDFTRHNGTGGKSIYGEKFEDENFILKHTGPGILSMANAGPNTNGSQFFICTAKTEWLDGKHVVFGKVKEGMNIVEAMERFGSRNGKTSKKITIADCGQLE

Compound `COc1ccc(CCN(C(=O)c2cc3ccccc3[nH]2)C(C(=O)NC2CCCCC2)c2ccc([N+](=O)[O-])cc2)cc1OC` (centres undefined) showed an EC50 in series [1] of 31.9 µM. Moreover, in series [2], the CC50 at 72 h was above 100 µM. Besides, the selectivity ratio in series [3] was above 3.1.

On to `COc1ccc(N(C(=O)Cc2c[nH]c3ccccc23)C(C(=O)NC2CCCCC2)c2ccc([N+](=O)[O-])cc2)cc1OC` (centres undefined), for which the midpoint of the response in series [1], the EC50, lay at 3.2 µM. The CC50 at 72 h in series [2] worked out at 57.6 µM. Further, in series [3], the selectivity ratio came to 18.

`CC(C)(C)NC(=O)C(c1ccc([N+](=O)[O-])cc1)N(C(=O)Cc1c[nH]c2ccccc12)c1ccc(Br)cc1` (centres undefined): in series [1], the EC50 is above 7 µM. The CC50 at 72 h in series [2] came out at 7 µM.

In the case of `COc1cccc(CCN(C(=O)c2cc3ccccc3[nH]2)C(C(=O)NC2CCCCC2)c2ccc([N+](=O)[O-])cc2)c1` (centres undefined), the EC50 in series [1] worked out at 22.2 µM. Moreover, the CC50 at 72 h in series [2] was found to be 43.1 µM. Moreover, the selectivity ratio in series [3] was found to be 1.9.

On to `COc1ccc(CN(C(=O)Cc2c[nH]c3ccccc23)C(C(=O)NC2CCCCC2)c2ccc([N+](=O)[O-])cc2)cc1` (centres undefined), for which the EC50 in series [1] is above 56.3 µM. The CC50 at 72 h in series [2] was 56.3 µM.

In turn, `COc1ccc(CCN(C(=O)Cc2c[nH]c3ccccc23)C(C(=O)NC2CCCCC2)c2ccc([N+](=O)[O-])cc2)cc1OC` (centres undefined) yielded a half-maximal effective concentration (EC50) in series [1] of 4.2 µM. For the same compound, the CC50 at 72 h in series [2] is above 100 µM. Also, the selectivity ratio in series [3] is above 23.8. In addition, in the series on Hepatitis C virus, the Activity result is “Dose-dependent effect”.

On to `COc1cc(C(C(=O)NC2CCCCC2)N(C(=O)Cc2c[nH]c3ccccc23)c2ccc(C(C)C)cc2)cc(OC)c1OC` (centres undefined), for which a half-maximal response in series [1] (EC50) required 5.2 µM. For the same compound, the CC50 at 72 h in series [2] was above 100 µM.

In series [4], `CC(C)c1ccc(N(C(=O)Cc2c[nH]c3ccccc23)C(C(=O)NC2CCCCC2)c2ccc([N+](=O)[O-])cc2)cc1` (centres undefined) had a Kd of 4.6 µM.

For `COc1cccc(CCN(C(=O)Cc2c[nH]c3ccccc23)C(C(=O)NC2CCCCC2)c2ccc([N+](=O)[O-])cc2)c1` (centres undefined), the EC50 in series [1] was above 27.6 µM. The CC50 at 72 h in series [2] worked out at 27.6 µM.

Compound `NC(=O)c1ncn([C@@H]2O[C@H](CO)[C@@H](O)[C@H]2O)n1` [RIBAVIRIN] yielded an EC50 in series [1] of 16.3 µM. In series [2], the CC50 at 72 h is above 100 µM. Besides, in series [3], the selectivity ratio is above 6.1.

Consider `O=C(NC1CCCCC1)C(c1ccc([N+](=O)[O-])cc1)N(C(=O)Cc1c[nH]c2ccccc12)c1ccccc1` (centres undefined), for which the EC50 in series [1] was 6 µM. The CC50 at 72 h in series [2] was found to be 11.9 µM. The selectivity ratio in series [3] is 2.

Take `COc1ccc(N(C(=O)Cc2c[nH]c3ccccc23)C(C(=O)NC2CCCCC2)c2ccc([N+](=O)[O-])cc2)cc1` (centres undefined): in series [1], the EC50 was found to be 2.5 µM. For the same compound, in series [2], the CC50 at 72 h is 8.5 µM. Moreover, the selectivity ratio in series [3] worked out at 3.4.

On to `COc1ccc(CCN(C(=O)Cc2c[nH]c3ccccc23)C(C(=O)NC2CCCCC2)c2cc(OC)c(OC)c(OC)c2)cc1OC` (centres undefined), for which, in series [1], it took 5.3 µM to reach a half-maximal effect (EC50). Besides, the CC50 at 72 h in series [2] is above 100 µM.

Regarding `O=C(NC1CCCCC1)C(c1ccc([N+](=O)[O-])cc1)N(C(=O)Cc1c[nH]c2ccccc12)c1ccc(Br)cc1` (centres undefined), the 50% effective concentration (EC50) in series [1] worked out at 6.3 µM. Besides, the CC50 at 72 h in series [2] amounted to 13.8 µM. Also, the selectivity ratio in series [3] came out at 2.2.

Compound `COc1ccc(CCC(=O)N(c2ccc(Br)cc2)C(C(=O)NC2CCCCC2)c2ccc([N+](=O)[O-])cc2)cc1` (centres undefined) yielded an EC50 in series [1] of 6.1 µM. Further, the CC50 at 72 h in series [2] stood at 9.8 µM.

As to `COc1ccc(N(C(=O)c2cc3ccccc3[nH]2)C(C(=O)NC2CCCCC2)c2ccc([N+](=O)[O-])cc2)cc1OC` (centres undefined), in series [1], the midpoint of the response, the EC50, lay at 4.1 µM. In addition, the CC50 at 72 h in series [2] was above 100 µM. Besides, the selectivity ratio in series [3] is above 24.5. In addition, in the series on Hepatitis C virus, the Activity result was “Dose-dependent effect”.

With `CCCCCNC(=O)C(c1ccc([N+](=O)[O-])cc1)N(C(=O)Cc1c[nH]c2ccccc12)c1ccc(Br)cc1` (centres undefined), the EC50 in series [1] is above 7 µM. Besides, the CC50 at 72 h in series [2] came out at 7 µM.
